Reference: US20230265151A1, “GIP/GLP1 CO-AGONIST COMPOUNDS” (priority 2020, published 2023)
Like-named read-outs stand apart in the source and are kept apart here.

How the values were obtained:
[1] = target: T1, hGIPR (Homo sapiens, UniProt P48546); assay: Functional cAMP formation (HTRF) in HEK-293 clonal cells expressing hGIPR, 0.1% bovine casein, without or with 1.0% human serum albumin; format: cell-based; conditions: for Emax: 37° C.; for EC50: cAMP, incubated at 37° C., 0.1% bovine casein (no human serum albumin), geometric mean
T1 construct: expressed in transfected cells
T1 sequence (P48546 22-466): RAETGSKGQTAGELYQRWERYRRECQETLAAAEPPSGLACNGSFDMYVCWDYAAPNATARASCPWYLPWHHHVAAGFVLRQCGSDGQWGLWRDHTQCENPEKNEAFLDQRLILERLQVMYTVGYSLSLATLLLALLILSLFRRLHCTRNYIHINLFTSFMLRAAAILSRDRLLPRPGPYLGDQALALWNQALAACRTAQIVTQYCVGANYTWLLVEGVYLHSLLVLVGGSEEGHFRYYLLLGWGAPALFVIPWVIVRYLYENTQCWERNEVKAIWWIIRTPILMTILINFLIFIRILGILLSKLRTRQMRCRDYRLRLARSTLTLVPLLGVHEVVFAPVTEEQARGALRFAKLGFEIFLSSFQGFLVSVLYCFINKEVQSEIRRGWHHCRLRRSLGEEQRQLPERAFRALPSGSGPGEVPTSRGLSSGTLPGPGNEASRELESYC
Experimental: (§1) After a 30-min incubation at 37° C., the resulting increase in intracellular cAMP is quantitatively determined using a CisBio cAMP Dynamic 2 HTRF Assay Kit (62AM4PEJ). Briefly, cAMP levels within the cell are detected by adding the cAMP-d2 conjugate in cell lysis buffer (10 µL) followed by the antibody anti-cAMP-Eu^3+-Cryptate, also in cell lysis buffer (10 µL). The resulting competitive assay is incubated for at least 60 min at room temperature, and then is detected using a PerkinElmer Envision® instrument with excitation at 320 nm and emission at 665 nm and 620 nm. Envision units (emission at 665 nm/620 nm* 10,000) are inversely proportional to the amount of cAMP present and are converted to nM cAMP per well us-ing a cAMP standard curve. […] A relative EC50 value and percent top (Emax) are derived by non-linear regression analysis using the percent maximal response vs. the concentration of peptide added, fitted to a four-parameter logistic equation.

[2] = target: T2, hGCGR (Homo sapiens, UniProt P47871); assay: Functional cAMP formation (HTRF) in HEK-293 clonal cells expressing hGCGR, 0.1% bovine casein, without or with 1.0% human serum albumin; format: cell-based; conditions: geometric mean
T2 construct: expressed in transfected cells
T2 sequence (P47871 26-477): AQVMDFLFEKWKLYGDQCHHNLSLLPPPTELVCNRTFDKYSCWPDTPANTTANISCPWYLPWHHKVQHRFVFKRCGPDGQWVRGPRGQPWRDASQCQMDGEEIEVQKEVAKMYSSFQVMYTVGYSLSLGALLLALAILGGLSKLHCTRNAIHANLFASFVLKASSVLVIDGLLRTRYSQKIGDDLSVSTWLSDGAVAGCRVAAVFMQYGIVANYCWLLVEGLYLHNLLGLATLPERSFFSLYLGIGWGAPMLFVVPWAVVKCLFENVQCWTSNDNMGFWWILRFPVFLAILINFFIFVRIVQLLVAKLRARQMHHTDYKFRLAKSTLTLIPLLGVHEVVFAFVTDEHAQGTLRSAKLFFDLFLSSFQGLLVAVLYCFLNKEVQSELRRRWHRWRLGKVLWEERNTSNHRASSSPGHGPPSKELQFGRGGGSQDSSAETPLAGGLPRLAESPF
Experimental: as §1

[3] = HEK293, read-out: hGIPR Emax, % ± SEM, percent of maximal response to GIP(1-42)NH2, 0.1% bovine casein, arithmetic mean
[4] = hGCGR EC50, nM (SEM, n), cAMP, incubated at 37° C., 0.1% bovine casein (no human serum albumin)
[5] = HEK293, percent of maximal response to GIP(1-42)NH2, 0.1% bovine casein, arithmetic mean, read-out: hGIPR Emax, % ± SEM
[6] = cAMP, incubated at 37° C., 0.1% bovine casein (no human serum albumin), read-out: hGCGR EC50, nM (SEM, n)

| Compound | Emax [1, 3] [%] | EC50 ([1]; hGIPR EC50, nM (SEM, n)) [nM] | EC50 [2, 4] [nM] | Emax [1, 5] [%] | EC50 ([1]; read-out: hGIPR EC50, nM (SEM, n)) [nM] | EC50 [2, 6] [nM] | Emax ([1]; HEK293, 0.1% bovine casein and 1.0% human serum albumin, percent of maximal response to GIP(1-42)NH2, read-out: hGIPR Emax, % ± SEM) [%] | EC50 ([2]; 0.1% bovine casein and 1.0% human serum albumin, 37° C., read-out: hGCGR EC50, nM (SEM, n)) [nM] |
| --- | --- | --- | --- | --- | --- | --- | --- | --- |
| CC[C@H](C)[C@H](NC(=O)[C@H](CC(C)C)NC(=O)[C@](C)(Cc1ccc(O)cc1)NC(=O)[C@H](CCCCNC(=O)COCCOCCNC(=O)COCCOCCNC(=O)COCCOCCNC(=O)CC[C@H](NC(=O)CCCCCCCCCCCCC(=O)O)C(=O)O)NC(=O)[C@@H](NC(=O)[C@H](Cc1ccccc1)NC(=O)[C@H](CCC(=O)O)NC(=O)C(C)(C)NC(=O)[C@H](CCC(N)=O)NC(=O)[C@H](C)NC(=O)[C@H](CCCCNC(=O)COCCOCCNC(=O)COCCOCCNC(=O)COCCOCCNC(=O)CC[C@H](NC(=O)CCCCCCCCCCCCC(=O)O)C(=O)O)NC(=O)[C@H](CCCN)NC(=O)[C@H](CC(=O)O)NC(=O)[C@H](CC(C)C)NC(=O)[C@](C)(CC(C)C)NC(=O)[C@@H](NC(=O)[C@H](CO)NC(=O)[C@H](Cc1ccncc1)NC(=O)[C@H](CC(=O)O)NC(=O)[C@H](CO)NC(=O)[C@@H](NC(=O)[C@](C)(Cc1ccccc1F)NC(=O)[C@@H](NC(=O)CNC(=O)[C@H](CCC(=O)O)NC(=O)C(C)(C)NC(=O)[C@@H](N)Cc1ccc(O)cc1)[C@@H](C)O)[C@@H](C)O)[C@@H](C)CC)[C@@H](C)CC)C(=O)N[C@@H](CCC(=O)O)C(=O)NCC(=O)NCC(=O)N1CCC[C@H]1C(=O)N[C@@H](CO)C(=O)N[C@@H](CO)C(=O)NCC(=O)N[C@@H](C)C(=O)N1CCC[C@H]1C(=O)N1CCC[C@H]1C(=O)N1CCC[C@H]1C(=O)N[C@@H](CO)C(N)=O [Example 80] | 92.4 ± 1.14 | 0.0245 | > 9950 |  |  |  |  |  |
| CC[C@H](C)[C@H](NC(=O)[C@H](CC(C)C)NC(=O)[C@](C)(Cc1ccccc1)NC(=O)[C@H](CCCCNC(=O)COCCOCCNC(=O)COCCOCCNC(=O)CC[C@H](NC(=O)CCCCCCCCCCCCC(=O)O)C(=O)O)NC(=O)[C@@H](NC(=O)[C@H](Cc1ccccc1)NC(=O)[C@H](CCC(=O)O)NC(=O)C(C)(C)NC(=O)[C@H](CCC(N)=O)NC(=O)[C@H](C)NC(=O)[C@H](CCCCNC(=O)COCCOCCNC(=O)COCCOCCNC(=O)CC[C@H](NC(=O)CCCCCCCCCCCCC(=O)O)C(=O)O)NC(=O)[C@H](CCCN)NC(=O)[C@H](CC(=O)O)NC(=O)[C@H](CC(C)C)NC(=O)[C@](C)(CC(C)C)NC(=O)[C@@H](NC(=O)[C@H](CO)NC(=O)[C@H](Cc1ccncc1)NC(=O)[C@H](CC(=O)O)NC(=O)[C@H](CO)NC(=O)[C@@H](NC(=O)[C@](C)(Cc1ccccc1F)NC(=O)[C@@H](NC(=O)CNC(=O)[C@H](CCC(=O)O)NC(=O)C(C)(C)NC(=O)[C@@H](N)Cc1ccc(O)cc1)[C@@H](C)O)[C@@H](C)O)[C@@H](C)CC)[C@@H](C)CC)C(=O)N[C@@H](CCC(=O)O)C(=O)NCC(=O)NCC(=O)N1CCC[C@H]1C(=O)N[C@@H](CO)C(=O)N[C@@H](CO)C(=O)NCC(=O)N[C@@H](C)C(=O)N1CCC[C@H]1C(=O)N1CCC[C@H]1C(=O)N1CCC[C@H]1C(=O)N[C@@H](CO)C(N)=O [Example 83] | 89.6 ± 7.35 | 0.0223 | > 9950 |  |  |  |  |  |
| CC[C@H](C)[C@H](NC(=O)[C@H](CC(C)C)NC(=O)[C@](C)(Cc1ccc(O)cc1)NC(=O)[C@@H](CCC(=O)O)NC(=O)[C@@H](NC(=O)[C@H](Cc1ccccc1)NC(=O)[C@H](CCC(=O)O)NC(=O)C(C)(C)NC(=O)[C@H](CCC(N)=O)NC(=O)[C@H](C)NC(=O)[C@H](CCC(N)=O)NC(=O)[C@H](CCCN)NC(=O)[C@H](CC(=O)O)NC(=O)[C@H](CC(C)C)NC(=O)[C@](C)(CC(C)C)NC(=O)[C@@H](NC(=O)[C@H](CO)NC(=O)[C@H](Cc1ccncc1)NC(=O)[C@H](CC(=O)O)NC(=O)[C@H](CO)NC(=O)[C@@H](NC(=O)[C@](C)(Cc1ccccc1F)NC(=O)[C@@H](NC(=O)CNC(=O)[C@H](CCC(=O)O)NC(=O)C(C)(C)NC(=O)[C@@H](N)Cc1ccc(O)cc1)[C@@H](C)O)[C@@H](C)O)[C@@H](C)CC)[C@@H](C)CC)C(=O)N[C@@H](CCCCNC(=O)COCCOCCNC(=O)COCCOCCNC(=O)CC[C@H](NC(=O)CCCCCCCCCCCCC(=O)O)C(=O)O)C(=O)NCC(=O)NCC(=O)N[C@@H](CCCCNC(=O)COCCOCCNC(=O)COCCOCCNC(=O)CC[C@H](NC(=O)CCCCCCCCCCCCC(=O)O)C(=O)O)C(=O)N[C@@H](CO)C(=O)N[C@@H](CO)C(=O)NCC(=O)N[C@@H](C)C(=O)N1CCC[C@H]1C(=O)N1CCC[C@H]1C(=O)N1CCC[C@H]1C(=O)N[C@@H](CO)C(N)=O [Example 86] |  |  |  | 94.2 ± 1.16 | 0.0184 | > 9950 |  |  |
| CC[C@H](C)[C@H](NC(=O)[C@H](CC(C)C)NC(=O)[C@](C)(Cc1ccc(O)cc1)NC(=O)[C@@H](CCC(=O)O)NC(=O)[C@@H](NC(=O)[C@H](Cc1ccccc1)NC(=O)[C@H](CCC(=O)O)NC(=O)C(C)(C)NC(=O)[C@H](CCC(N)=O)NC(=O)[C@H](C)NC(=O)[C@H](CCCCNC(=O)COCCOCCNC(=O)COCCOCCNC(=O)CC[C@H](NC(=O)CCCCCCCCCCCCC(=O)O)C(=O)O)NC(=O)[C@H](CCCN)NC(=O)[C@H](CC(=O)O)NC(=O)[C@H](CC(C)C)NC(=O)[C@](C)(CC(C)C)NC(=O)[C@@H](NC(=O)[C@H](CO)NC(=O)[C@@H](NC(=O)[C@H](CC(=O)O)NC(=O)[C@H](CO)NC(=O)[C@@H](NC(=O)[C@](C)(Cc1ccccc1F)NC(=O)[C@@H](NC(=O)CNC(=O)[C@H](CCC(=O)O)NC(=O)C(C)(C)NC(=O)[C@@H](N)Cc1ccc(O)cc1)[C@@H](C)O)[C@@H](C)O)C1CCCCC1)[C@@H](C)CC)[C@@H](C)CC)C(=O)N[C@@H](CCC(=O)O)C(=O)NCC(=O)NCC(=O)N[C@@H](CCCCNC(=O)COCCOCCNC(=O)COCCOCCNC(=O)CC[C@H](NC(=O)CCCCCCCCCCCCC(=O)O)C(=O)O)C(=O)N[C@@H](CO)C(=O)N[C@@H](CO)C(=O)NCC(=O)N[C@@H](C)C(=O)N1CCC[C@H]1C(=O)N1CCC[C@H]1C(=O)N1CCC[C@H]1C(=O)N[C@@H](CO)C(N)=O [Example 97] |  |  |  | 97 ± 1.53 |  | > 9950 | 93.1 | > 9950 |
| CC[C@H](C)[C@H](NC(=O)[C@H](CC(C)C)NC(=O)[C@](C)(Cc1ccc(O)cc1)NC(=O)[C@@H](CCC(=O)O)NC(=O)[C@@H](NC(=O)[C@H](Cc1ccccc1)NC(=O)[C@H](CCC(=O)O)NC(=O)C(C)(C)NC(=O)[C@H](CCC(N)=O)NC(=O)[C@H](C)NC(=O)[C@H](CCCCNC(=O)COCCOCCNC(=O)COCCOCCNC(=O)CC[C@H](NC(=O)CCCCCCCCCCCCC(=O)O)C(=O)O)NC(=O)[C@H](CCCN)NC(=O)[C@H](CC(=O)O)NC(=O)[C@H](CC(C)C)NC(=O)[C@](C)(CC(C)C)NC(=O)[C@@H](NC(=O)[C@H](CO)NC(=O)[C@H](Cc1csc2ccccc12)NC(=O)[C@H](CC(=O)O)NC(=O)[C@H](CO)NC(=O)[C@@H](NC(=O)[C@](C)(Cc1ccccc1F)NC(=O)[C@@H](NC(=O)CNC(=O)[C@H](CCC(=O)O)NC(=O)C(C)(C)NC(=O)[C@@H](N)Cc1ccc(O)cc1)[C@@H](C)O)[C@@H](C)O)[C@@H](C)CC)[C@@H](C)CC)C(=O)N[C@@H](CCC(=O)O)C(=O)NCC(=O)NCC(=O)N[C@@H](CCCCNC(=O)COCCOCCNC(=O)COCCOCCNC(=O)CC[C@H](NC(=O)CCCCCCCCCCCCC(=O)O)C(=O)O)C(=O)N[C@@H](CO)C(=O)N[C@@H](CO)C(=O)NCC(=O)N[C@@H](C)C(=O)N1CCC[C@H]1C(=O)N1CCC[C@H]1C(=O)N1CCC[C@H]1C(=O)N[C@@H](CO)C(N)=O [Example 142] |  |  |  |  |  | > 9950 |  |  |
